# Read-outs that look alike come from different tables or passages of the source.
# Legend:
# Hymenolepis nata = details: U.S. Pat. No. 3,862,945; cited from earlier work
# S. aureus = details: taken from Antibiotics in Laboratory Medicine; cited from earlier work
# ASPC-1 = assay: Antineoplastic activity, fluorescence based live-cell/dead cell ratio; details: Homo sapiens, ASPC1, ASPC-1
# Procedure: (§1) Values of IC50 (inhibitory concentration 50%) were calculated from the relative percent transmitted light as detected on a fluorescence 96 well plate reader.
# ZR-75-1 = assay: as above; details: Homo sapiens, ZR-75-1, ZR-75-1
# Procedure: as §1
# C. albicans ATCC 90028 = assay: In vitro antifungal susceptibility assay adapted from NCCLS (MIC); type: cell-based, Candida albicans
# Procedure: (§2) Compounds of the invention also display antifungal activities. […] Using C. albicans ATCC® 90028, C. neoformans ATCC® 90112 and T. glabrata ATCC® 90030, the protocol is performed as follows:
# (§3) Prepare 0.0128 g DAA in 10 mL dH2 O (or other if H2 O insoluble)=1280 μg/mL (stock solution). Dilute DAA stock solution 1:10 with RPMI-1640: 0.5 mL DAA stock solution+4.5 mL RPMI-1640=128 μg/mL (DAA working solution).
# (§4) Inoculate rows A-H, columns 2-12 with 100 μl of RPMI-1640 using Eppendorf repeater pipette. Inoculate rows A-C columns 1 and 2 with 100 μl of 1st antibiotic (i.e. DAA-1) using electronic pipette. Inoculate rows E-G columns 1 and 2 with 100 μl of 2nd antibiotic (i.e. DAA-2) using electronic pipette. […] Plate is now ready for fungal inocula, which involves pipetting 100 μl of the inocula into all wells in rows A-C columns 1-12 and rows E-G columns 1-12. […]
# (§5) Five colonies greater than 1 mm in diameter are suspended in a spectrophotometer cuvette containing 5 mL of sterile, 0.85% saline (colonies are obtained from 24 hrs. old Candida and Torulopsis cultures, while Cryptococcus colonies are chosen from 48 hrs. old cultures). Spectrophotometer is set to read % transmission at a wavelength of 530 nm, and is standardized using two cuvettes. […] Fungal inoculum is now prepared and ready to be introduced to microplates. […]
# 41-SK = assay: Antineoplastic activity, fluorescence based live-cell/dead cell ratio; parameters: species or system human
# Procedure: as §1
# [1] = system: Escherichia coli ATCC 25922; assay: Macrobroth dilution testing for antimicrobial activity (MIC); type: cell-based; details: ATCC25922, 18 h, macrodilution, read-out: Minimum Inhibitory Concentration
# Procedure: (§6) A working antimicrobial solution was prepared by diluting the test compound in Mueller Hinton Broth (MHB) to the highest final concentration desired. The test was performed in 13×100 mm test tubes. Two mL of the working solution of test compound were added to test tube 1 of the dilution series. To each remaining tube, 1.0 mL of MHB was added. A sterile pipette was used to transfer 1.0 mL from tube 1 to tube 2. After thorough mixing 1.0 mL was transferred (with a separate pipette for this and each succeeding transfer) to tube 3. This process was continued to the next to last tube from which 1.0 mL was removed and discarded. The last tube received no antimicrobial agent and served as a growth control. The inoculum was prepared and adjusted to contain […] by adjusting the turbidity of a broth culture to match to 0.5 McFarland standard. It was then further diluted 1:200 in broth. One mL of the adjusted inoculum was added to each test tube. The final concentrations of antimicrobial agents in this test were half those of the initial dilution series because of the addition of an equal volume of inoculum in broth. Tubes were incubated at 35° C. for 18 hours. […] A very faint haziness or a small button is usually disregarded.
# [2] = system: Pseudomonas aeruginosa ATCC 27853; assay: as above; type: cell-based; details: ATCC27853, 18 h, macrodilution, read-out: Minimum Inhibitory Concentration
# Procedure: as §6
# [3] = system: Staphlococcus aureus ATCC 25923; assay: as above; type: cell-based; details: Staphylococcus aureus, ATCC25923, 18 h, macrodilution, read-out: Minimum Inhibitory Concentration
# Procedure: as §6
# S. aureus ATCC 25923 [4] = assay: Microbroth dilution assay of antimicrobial susceptibility (MIC); type: cell-based, Staphylococcus aureus; details: microdilution, CAMHB, 37° C.
# Procedure: It is described below, using E. coli ATCC® 25922, S. aureus ATCC® 25923, and P. aeruginosa ATCC® 27853. Prepare 0.0128 g DAA in 10 mL dH2 O (or 95% EtOH, methanol or DMSO if H2 O insoluble)=1280 μg/mL (stock solution). Dilute DAA stock solution 1:10 with CAMHB (Cation-Adjusted Mueller Hinton Broth): 0.5 mL DAA stock solution+4.5 mL CAMHB=128 μg/mL (DAA working solution). Pipette 100 μl of sterile CAMHB per well into columns 2-12 of rows A-G using Eppendorf repeater pipette. Pipette 100 μl per well of sterile-filtered DAA working solution into columns 1 and 2 of rows A, C, E, G using Jensen electric pipette. Mix and transfer 100 μl from column 2 to 3 of rows A, C, E, G using Jensen pipette. Repeat to column 12 then discard 100 μl from column 12. Rows B, D and F are positive growth control lanes for each organism and contain only CAMHB and the organism--no DAA. Row H is the media additive control lane, if necessary (e.g. MeOH, EtOH, DMSO etc.). The concentration of the media additive is obtained by doing a 1:10 dilution of the additive with CAMHB (0.5 mL additive+4.5 mL CAMHB). Row G is considered to be "negative growth control" and is loaded with only CAMHB and the DAA. Inoculate 0.5 mL TSB (Trypticase Soy Broth) tubes with 3 single colonies each of E. coli, S. aureus, and P. Aeruginosa from TSA plates using sterile needle. Incubate @ 37° C. for 4-6 hr. Measure out 100 mL CAMHB using the sterile 100 mL volumetric flask. Pour the excess into a sterile reagent reservoir. Pipette 0.5 mL and discard, leaving 99.5 mL in each of the 3-Erlenmeyer flasks. Set aside. Use the excess CAMHB for the 1:10 dilution of inoculum: 0.5 mL inoculum+4.5 mL CAMHB. Perform a 1:200 dilution of inoculum: 0.5 mL of 1:10 diluted inoculum+99.5 mL CAMHB from previous step. Pipette 100 μl (using Eppendorf repeater pipette) E. coli into each well in columns 1-12 of rows A and B and columns 1-4 of row H (if media additive control lane necessary). Pipette 100 μl P. aeruginosa into each well in columns 1-12 of rows C and D and columns 5-8 of row H (if media additive control lane is necessary). Pipette 100 μl S. aureus into each well in columns 1-12 of rows E and F and columns 9-12 of row H (if media additive control lane is necessary). Incubate microtiter plates @ 37° C. for 18 hrs. The lowest concentration of antimicrobial agent that results in significant inhibition of visible growth represents the MIC (Minimal Inhibitory Concentration).
# E. coli ATCC 25922 [5] = assay: as above; type: cell-based; details: Escherichia coli, ATCC25922; microdilution, CAMHB, 37° C., 18 hrs
# Procedure: It is described below, using E. coli ATCC® 25922, S. aureus ATCC® 25923, and P. aeruginosa ATCC® 27853. Prepare 0.0128 g DAA in 10 mL dH2 O (or 95% EtOH, methanol or DMSO if H2 O insoluble)=1280 μg/mL (stock solution). Dilute DAA stock solution 1:10 with CAMHB (Cation-Adjusted Mueller Hinton Broth): 0.5 mL DAA stock solution+4.5 mL CAMHB=128 μg/mL (DAA working solution). Pipette 100 μl of sterile CAMHB per well into columns 2-12 of rows A-G using Eppendorf repeater pipette. Pipette 100 μl per well of sterile-filtered DAA working solution into columns 1 and 2 of rows A, C, E, G using Jensen electric pipette. Mix and transfer 100 μl from column 2 to 3 of rows A, C, E, G using Jensen pipette. Repeat to column 12 then discard 100 μl from column 12. Rows B, D and F are positive growth control lanes for each organism and contain only CAMHB and the organism--no DAA. Row H is the media additive control lane, if necessary (e.g. MeOH, EtOH, DMSO etc.). The concentration of the media additive is obtained by doing a 1:10 dilution of the additive with CAMHB (0.5 mL additive+4.5 mL CAMHB). Row G is considered to be "negative growth control" and is loaded with only CAMHB and the DAA. Inoculate 0.5 mL TSB (Trypticase Soy Broth) tubes with 3 single colonies each of E. coli, S. aureus, and P. Aeruginosa from TSA plates using sterile needle. Incubate @ 37° C. for 4-6 hr. […]
# C. neoformans ATCC 90112 = assay: In vitro antifungal susceptibility assay adapted from NCCLS (MIC); type: cell-based, Cryptococcus neoformans; details: Cryptococcus neoformans, ATCC90112; RPMI-1640; read-out: MIC
# Procedure: as §2, §3, §4, §5
# T. glabrata ATCC 90030 = assay: as above; type: cell-based, Torulopsis glabrata; details: Nakaseomyces glabratus, ATCC90030; RPMI-1640; read-out: MIC
# Procedure: as §2, §3, §4, §5
# P. aeruginosa ATCC 27853 = details: control limits, Gentamicin 10 mcg disk; cited from earlier work
# E. coli ATCC 25922 [6] = details: control limits, Gentamicin 10 mcg disk; cited from earlier work
# S. aureus ATCC 25923 [7] = details: control limits, Gentamicin 10 mcg disk; cited from earlier work
# [8] = Staphylococcus aureus, ATCC25923, 18 h, read-out: MIC
compound,measurement,setting,value
"CC1NCc2cc3c(cc2C1c1ccccc1)CNC(C)C3c1ccccc1.Cl.Cl (centres unmarked) [1,2,3,4,6,7,8,9-octahydro-3,8-dimethyl-4,9-diphenyl-pyrido[3,4-g]isoquinoline dihydrochloride]",anti-parasitic activity,Hymenolepis nata,has an anti-parasitic activity
O=C(O)c1cn(C2CC2)c2cc(N3CCNCC3)c(F)cc2c1=O [Ciprofloxacin],MIC,S. aureus,0.25 to 1 µg/mL
Cc1cnc2cc3cncc(C)c3cc2c1 [Derivative No. 1],IC50,ASPC-1,58 µg/mL
same,IC50,ZR-75-1,47.3 µg/mL
same,MIC,"C. albicans ATCC 90028; RPMI-1640, listed as 1,8-DAA-3,6-(Me)2.HCl",64 µg/mL
same,IC50,"41-SK; listed as 1,8-DAA(Me)2 · HCl",139.2 µg/mL
same,MIC,[1],64 µg/mL
same,MIC,[2],> 64 µg/mL
same,MIC,[3],4 µg/mL
same,MIC,"S. aureus ATCC 25923 [4]; 18 hrs, listed as 1,8-DAA-3,6-(Me)2.HCl",32 µg/mL
Cc1cc2cc3c(C)c[n+]([O-])cc3cc2[n+]([O-])c1 [Derivative No. 7],IC50,ASPC-1,9.3 µg/mL
same,IC50,ZR-75-1,1.9 µg/mL
same,IC50,"41-SK; Homo sapiens, read-out: IC50",11.3 µg/mL
same,MIC,E. coli ATCC 25922 [5],4 µg/mL
same,MIC,S. aureus ATCC 25923 [4]; [8],0.125 µg/mL
"Cc1cc2cc3c(C)c[n+](C)cc3cc2[n+](C)c1 [Example 8.4, N,N'-dimethyl-1,8-DAA-3,6-(Me)2 tetrafluoroborate hemihydrate]",IC50,ASPC-1,62.5 µg/mL
same,IC50,ZR-75-1,38.3 µg/mL
same,IC50,"41-SK; Homo sapiens, read-out: IC50",35.9 µg/mL
Cc1cnc2c(c1)C(=O)c1c(C)cncc1C2=O [Example 14],MIC,"C. albicans ATCC 90028; Candida albicans, ATCC90028, RPMI-1640, read-out: MIC",8 µg/mL
same,MIC,S. aureus ATCC 25923 [4]; [8],1 µg/mL
same,MIC,C. neoformans ATCC 90112,4 µg/mL
same,MIC,T. glabrata ATCC 90030,4 µg/mL
Cc1cncc2cc3c(C)cncc3cc12 [Example 17],MIC,S. aureus ATCC 25923 [4]; [8],64 µg/mL
CC1(C)S[C@@H]2[C@H](NC(=O)Cc3ccccc3)C(=O)N2[C@H]1C(=O)O [Penicillin],MIC,S. aureus,8 to 16 µg/mL
CN(C)C1C(=O)C(C(N)=O)=C(O)C2(O)C(=O)C3=C(O)c4c(O)cccc4C(C)(O)C3CC12 (centres unmarked) [Tetracycline],MIC,S. aureus,0.5 to 32 µg/mL
Gentamicin,control zone diameter,P. aeruginosa ATCC 27853,16-21 mm
same,control zone diameter,E. coli ATCC 25922 [6],19-26 mm
same,MIC,S. aureus,0.25 to 16 µg/mL
same,control zone diameter,S. aureus ATCC 25923 [7],19-27 mm

# Source: patent US5994365A, “Substituted diazaanthracene compounds having pharmaceutical utility” (Diazans Limited, priority 1998, dated 1999)
